Article PMC6272992, “Synthesis and Cytotoxic Effect of Some Novel 1,2-Dihydropyridin-3-carbonitrile and Nicotinonitrile Derivatives” (Molecules, 2015)
Values after ≈ are worked out from the molar mass of the structure shown.

Tests used:
[1] = tested on: WI 38 (normal fibroblast cells); test: SRB cell growth assay, normal cells WI 38; assay type: cell-based, human; details: 48 h exposure, non-cytotoxic = IC50 > 100 μg/mL; for IC50: Homo sapiens
Procedure: (§1) The in vitro cytotoxic activity the newly synthesized compounds against human breast cell line (MCF7), non-small cell lung cancer NCI-H460, CNS cancer SF-268 and WI 38 (normal fibroblast cells) were evaluated using doxorubicin as the reference drug, according to the method reported by Skehan et al..
(§2) The newly synthesized compounds were evaluated in vitro against three human cancer cell lines; which are MCF-7 (breast adenocarcinoma), NCI-H460 (non-small cell lung cancer) and SF-268 (CNS cancer), and WI 38 (normal fibroblast cells) were used in this study. MCF-7 was obtained from the European Collection of Cell Cultures (ECACC, Salisbury, UK) but NCI-H460, SF-268 and WI 38 were kindly provided by the National Cancer Institute (NCI, Cairo, Egypt). They grow as monolayers routinely maintained in RPMI-1640 medium supplemented with 5% heat inactivated fetal bovine serum (FBS), 2 mM glutamine and antibiotics (penicillin 100 U/mL, streptomycin 100 µg/mL), at 37 °C in a humidified atmosphere containing 5% CO2. Exponentially growing cells were obtained by plating 1.5 × 10^5 cells/mL for MCF-7 and SF-268, and 0.75 × 10^4 cells/mL for NCI-H460 followed by 24 h of incubation. The effect of the vehicle solvent (DMSO) on the growth of these cell lines was evaluated in all experiments by exposing untreated control cells to the maximum concentration (0.5%) of DMSO used in each assay.
(§3) The effect of compounds on the in vitro growth of human tumor cell lines were evaluated according to the procedure adopted by the National Cancer Institute (NCI, […], USA) in the “In vitro Anticancer Drug Discovery Screen” that uses the protein-binding dye sulforhodamine B (SRB) to assess cell growth. In the assay protocol, all cells were incubated at 37 °C under humidified atmosphere containing 5% CO2. Briefly, exponentially cells growing in 96-well plates were then exposed for 48 h to five serial concentrations of each compound, starting from a maximum concentration of 150 μg/mL. Following this exposure period, adherent cells were fixed, washed and stained. The bound stain was solubilized and the absorbance was measured at 492 nm in a Power Wave XS plate reader (Bio-Tek Instruments Inc., Winston, NC, USA). For each test compound and cell line, a dose response curve was obtained and the inhibitory concentration of 50% (IC50), corresponding to the concentration of the compounds that inhibited 50% of the net cell growth was calculated as described elsewhere. Doxorubicin was used as a positive control and tested in the same manner.

[2] = tested on: NCI-H460 (non-small cell lung cancer); test: SRB cancer cell growth assay, NCI-H460; assay type: cell-based, human; design: key to activity class NCI-H460: highly active; b: moderately active; weakly active; details: for IC50: Homo sapiens, NCI-H460, 48 h exposure, SRB, read-out: IC50 (μg/mL) NCI-H460
Procedure: as §1, §2, §3

SF-268 (CNS cancer) = test: SRB cancer cell growth assay, SF-268; assay type: cell-based, human; design: key to activity class SF-268: highly active; b: moderately active; weakly active; details: for IC50: Homo sapiens, SF-268, 48 h exposure, SRB, read-out: IC50 (μg/mL) SF-268
Procedure: as §1, §2, §3

[3] = tested on: MCF-7 (breast adenocarcinoma); test: SRB cancer cell growth assay, MCF-7; assay type: cell-based, human; design: key to activity class MCF-7: highly active; b: moderately active; weakly active; details: for IC50: Homo sapiens, MCF7, MCF-7, 48 h exposure, SRB, read-out: IC50 (μg/mL) MCF-7
Procedure: as §1, §2, §3

SMILES	melting point [°C]	IC50 [2] [µg/mL]	IC50 (SF-268 (CNS cancer)) [µg/mL]	IC50 [3] [µg/mL]	IC50 [1] [µg/mL]	activity class NCI-H460 [2]	activity class SF-268 (SF-268 (CNS cancer))	activity class MCF-7 [3]	IC50 (μg/mL) WI 38 [1]
N#Cc1c(-c2ccc(F)cc2)cc(-c2ccc(Cl)cc2Cl)nc1NCc1ccccc1 [Compound 12, 2-(Benzylamino)-6-(2,4-dichlorophenyl)-4-(4-fluorophenyl)nicotinonitrile]	158 to 159	–	–	–	–	–	–	–	–
CC1=NN(c2nc(-c3ccc(Cl)cc3Cl)cc(-c3ccc(F)cc3)c2C#N)C(=O)C1 [Compound 18, 6-(2,4-Dichlorophenyl)-4-(4-fluorophenyl)-2-(3-methyl-5-oxo-4,5-dihydro-1H-pyrazol-1-yl) nicotinonitrile]	246 to 248	0.01 ± 0.003 (≈ 0.0228 µM)	20.2 ± 3.26 (≈ 46 µM)	20.2 ± 2.26 (≈ 46 µM)	29.8 ± 4.88 (≈ 67.9 µM)	a	b	b	–
N#Cc1c(-c2ccc(F)cc2)cc(-c2ccc(Cl)cc2Cl)nc1C(C#N)C#N [Compound 16, 2-[3-Cyano-6-(2,4-dichlorophenyl)-4-(4-fluorophenyl)pyridin-2-yl]malononitrile]	99 to 101	0.02 ± 0.001 (≈ 0.0491 µM)	0.01 ± 0.003 (≈ 0.0246 µM)	0.01 ± 0.002 (≈ 0.0246 µM)	> 100	a	a	a	non-cytotoxic
N#Cc1c(-c2ccc(F)cc2)cc(-c2ccc(Cl)cc2Cl)nc1OCC(=O)NN [Compound 9, 2-[3-Cyano-6-(2,4-dichlorophenyl)-4-(4-fluorophenyl)pyridin-2-yloxy]acetohydrazide]	197 to 199	2.3 ± 2.86 (≈ 5.33 µM)	0.46 ± 0.06 (≈ 1.07 µM)	2.41 ± 1.24 (≈ 5.59 µM)	62.2 ± 2.02 (≈ 144 µM)	a	a	a	–
N#Cc1c(N)c2c(-c3ccc(F)cc3)cc(-c3ccc(Cl)cc3Cl)nc2[nH]c1=O [Compound 7, 4-Amino-7-(2,4-dichlorophenyl)-5-(4-fluorophenyl)-2-oxo-1,2-dihydro-1,8-naphthyridine-3-carbonitrile]	188 to 189	74 ± 3.65 (≈ 174 µM)	62.1 ± 3.61 (≈ 146 µM)	36.2 ± 2.14 (≈ 85.2 µM)	23 ± 8.2 (≈ 54 µM)	c	c	c	–
N#Cc1c(-c2ccc(F)cc2)cc(-c2ccc(Cl)cc2Cl)nc1OCC(=O)NN=Cc1ccc(F)cc1 [Compound 10, 2-[3-Cyano-6-(2,4-dichlorophenyl)-4-(4-fluorophenyl)pyridin-2-yloxy]-N′-(4-fluorobenzylidene)-acetohydrazide]	219 to 221	30.7 ± 1.64 (≈ 57.1 µM)	28.2 ± 8.83 (≈ 52.4 µM)	30.6 ± 1.1 (≈ 56.9 µM)	19.8 ± 2.68 (≈ 36.8 µM)	b	b	b	–
Cc1cc(C)n(-c2nc(-c3ccc(Cl)cc3Cl)cc(-c3ccc(F)cc3)c2C#N)n1 [Compound 19, 6-(2,4-Dichlorophenyl)-2-(3,5-dimethyl-1H-pyrazol-1-yl)-4-(4-fluorophenyl)nicotinonitrile]	287 to 289	62.3 ± 10.3 (≈ 142 µM)	10.4 ± 4.19 (≈ 23.8 µM)	75.2 ± 13.9 (≈ 172 µM)	50.2 ± 10.2 (≈ 115 µM)	c	a	c	–
N#Cc1c(-c2ccc(F)cc2)cc(-c2ccc(Cl)cc2Cl)nc1NN=C1C(=O)Nc2ccccc21 [Compound 20, 6-(2,4-Dichlorophenyl)-4-(4-fluorophenyl)-2-[2-(2-oxoindolin-3-ylidene)hydrazinyl]nicotinonitrile]	268 to 269	0.9 ± 0.12 (≈ 1.79 µM)	2.34 ± 0.51 (≈ 4.66 µM)	0.66 ± 0.21 (≈ 1.31 µM)	72.5 ± 2.4 (≈ 144 µM)	a	a	a	–
N#Cc1c(-c2ccc(F)cc2)cc(-c2ccc(Cl)cc2Cl)nc1NCc1ccc2c(c1)OCO2 [Compound 13, 2-(Benzo[d][1,3]dioxol-5-ylmethylamino)-6-(2,4-dichlorophenyl)-4-(4-fluorophenyl)nicotinonitrile]	149 to 151	18.9 ± 1.03 (≈ 38.4 µM)	23.2 ± 4.12 (≈ 47.2 µM)	16.3 ± 1.87 (≈ 33 µM)	20.4 ± 4.99 (≈ 41.4 µM)	b	b	b	–
N#Cc1c(-c2ccc(F)cc2)cc(-c2ccc(Cl)cc2Cl)nc1Cl [Compound 11, 2-Chloro-6-(2,4-dichlorophenyl)-4-(4-fluorophenyl)nicotinonitrile]	181 to 182	–	–	–	–	–	–	–	–
N#Cc1c(-c2ccc(F)cc2)cc(-c2ccc(Cl)cc2Cl)[nH]c1=O [Compound 2, 6-(2,4-Dichlorophenyl)-4-(4-fluorophenyl)-2-oxo-1,2-dihydropyridin-3-carbonitrile]	276 to 277	–	–	–	–	–	–	–	–
N#Cc1c(-c2ccc(F)cc2)cc(-c2ccc(Cl)cc2Cl)nc1NCCc1ccccc1 [Compound 14, 6-(2,4-Dichlorophenyl)-4-(4-fluorophenyl)-2-(phenylethylamino)nicotinonitrile]	142 to 143	–	–	–	–	–	–	–	–
COc1cccc2c1C(=O)c1c(O)c3c(c(O)c1C2=O)C[C@@](O)(C(=O)CO)C[C@@H]3O[C@H]1C[C@H](N)[C@H](O)[C@H](C)O1 [Doxorubicin, reference compound]	–	0.09 ± 0.008 (≈ 0.166 µM)	0.09 ± 0.007 (≈ 0.166 µM)	0.04 ± 0.008 (≈ 0.0736 µM)	–	–	–	–	non-cytotoxic

The next lines start with results.

melting point [°C]	IC50 [2] [µg/mL]	IC50 (SF-268 (CNS cancer)) [µg/mL]	IC50 [3] [µg/mL]	SMILES	IC50 [1] [µg/mL]	activity class NCI-H460 [2]	activity class SF-268 (SF-268 (CNS cancer))	activity class MCF-7 [3]	IC50 (μg/mL) WI 38 [1]
296 to 298	–	–	–	N#Cc1c(-c2ccc(F)cc2)cc(-c2ccc(Cl)cc2Cl)nc1NN=Cc1cccc2ccccc12 [Compound 21e, 6-(2,4-Dichlorophenyl)-4-(4-fluorophenyl)-2-[2-(naphthalen-1-ylmethylene)hydrazinyl] nicotinonitrile]	–	–	–	–	–
98 to 100	16.4 ± 2.32 (≈ 37.2 µM)	38.9 ± 2.63 (≈ 88.4 µM)	37.1 ± 7.34 (≈ 84.2 µM)	CC1CCCCN1c1nc(-c2ccc(Cl)cc2Cl)cc(-c2ccc(F)cc2)c1C#N (stereo not drawn) [Compound 15a, 6-(2,4-Dichlorophenyl)-4-(4-fluorophenyl)-2-(2-methylpiperidin-1-yl)nicotinonitrile]	30.6 ± 6.21 (≈ 69.5 µM)	b	c	c	–
278 to 280	45 ± 10.5 (≈ 86.2 µM)	32.5 ± 6.04 (≈ 62.2 µM)	66 ± 8.25 (≈ 127 µM)	COc1ccc(C=NNc2nc(-c3ccc(Cl)cc3Cl)cc(-c3ccc(F)cc3)c2C#N)cc1OC [Compound 21d, 6-(2,4-Dichlorophenyl)-2-[2-(3,4-dimethoxybenzylidene)hydrazinyl]-4-(4-fluorophenyl) nicotinonitrile]	–	c	b	c	non-cytotoxic
281 to 283	–	–	–	N#Cc1c(-c2ccc(F)cc2)cc(-c2ccc(Cl)cc2Cl)nc1NN=Cc1ccc([N+](=O)[O-])cc1 [Compound 21b, 6-(2,4-Dichlorophenyl)-4-(4-fluorophenyl)-2-[2-(4-nitrobenzylidene)hydrazinyl]nicotinonitrile]	–	–	–	–	–
112 to 114	–	–	–	N#Cc1c(-c2ccc(F)cc2)cc(-c2ccc(Cl)cc2Cl)nc1N1CCOCC1 [Compound 15b, 6-(2,4-Dichlorophenyl)-4-(4-fluorophenyl)-2-morpholinonicotinonitrile]	–	–	–	–	–
226 to 228	–	–	–	N#Cc1c(-c2ccc(F)cc2)cc(-c2ccc(Cl)cc2Cl)nc1NN=Cc1ccccc1Br [Compound 21a, 2-[2-(2-Bromobenzylidene)hydrazinyl]-6-(2,4-dichlorophenyl)-4-(4-fluorophenyl)nicotinonitrile]	–	–	–	–	–
